Converted amounts (≈) assume the structure as drawn. Read-outs that look alike come from different tables or passages of the source.
Columns and labels:
Assay type in all cases: physicochemical
[1] = Dissociation constant (pKa), GLpKa method, Sirius T3; conditions: for pKa: MDM co-solvent solution (ISA Water/MeOH/ACN/p-Dioxane), 43% MDM solution
Method: Based on these pKa values, Formula (I) is believed to be weakly basic compound.
The dissociation, pKa, was measured with a T3 (Sirius Analytical Instrument Ltd., UK). About 1 mg of Formula (I) bis-hydrochloride was transferred to a GLpKa beaker, dissolved with 43% to 53% MDM solution (ISA Water/MeOH/ACN/p-Dioxane=40/20/20/20, Sirius), adjusted to pH 1.8 with 0.5 N HCl, and titrated up to pH 12.2 with 0.5 N KOH. The pKa as an aqueous solution was calculated by extrapolation.

[2] = Solubility of bis-hydrochloride Form I by HPLC test and observation test
Method: Solubility was measured by HPLC according to KP, USP and EP general chapters. […] The results of solubility were same between HPLC test and observation test.

[3] = Hygroscopicity by dynamic vapor sorption (DVS); conditions: Form I trihydrate
Method: Dynamic vapor sorption (DVS) analysis was performed in a DVS advantage (Surface measurement system, United Kingdom) analyzer at 25° C. with a relative humidity of 0% to 90%. A sample in an amount of 10 mg was placed into a wire-mesh vapor sorption balance pan and then attached to a DVS advantage dynamic vapor sorption balance via surface measurement systems. […] Upon completion of the sorption cycle, the sample was dried using the same process while maintaining a relative humidity of 0%. The changes in the sample weight during the adsorption/desorption cycle (repeated 3 times) were recorded and the hygroscopicity of the sample was measured. DVS isotherm diagrams are presented in FIGS. 1, 3, 6, 10, 13, 16 and 19 where Target PP (%) refers to relative humidity, “SORP” refers to adsorption and “DESORP” refers to desorption.
Hygroscopicity was measured by DVS where the DVS curve for Formula (I) bis-hydrochloride was recorded in a DVS Advantage I analyzer (SMS, United Kingdom). The DVS was operated over 3 cycles for measurement of the surface adsorption effects of water, from 0% RH to 90% RH at 25°.

[4] = as an aqueous solution, calculated by extrapolation

- pKa ([1]; column 1, read-out: pKa (first value)): 3.85
- pKa ([1]; column 1, read-out: pKa (second value)): 4.71
- pKa ([1]; column 1, read-out: pKa (third value)): 10.4
- pKa ([1]; column 2, read-out: pKa (first value)): 3.88
- pKa ([1]; column 2, read-out: pKa (second value)): 4.7
- pKa ([1]; column 2, read-out: pKa (third value)): 10.4
- pKa ([1]; column 3, read-out: pKa (first value)): 3.84
- pKa ([1]; column 3, read-out: pKa (second value)): 4.69
- pKa ([1]; column 3, read-out: pKa (third value)): 10.4
- pKa1 [1, 4]: 3.86
- pKa2 [1, 4]: 4.73
- pKa3 ([1]; as an aqueous solution, calculated by extrapolation, listed as Formula (I) bis-hydrochloride Form I): 10.3
- solubility ([2]; ACN): 113431 mL/g
- Solubility Observation ([2]; ACN, listed as Formula (I) bis-hydrochloride Form I): Practically insoluble
- solubility ([2]; DMSO): 8 mL/g
- Solubility Observation ([2]; DMSO, listed as Formula (I) bis-hydrochloride Form I): Freely soluble
- solubility ([2]; Dichloromethane): 366289 mL/g
- Solubility Observation ([2]; Dichloromethane, listed as Formula (I) bis-hydrochloride Form I): Practically insoluble
- solubility ([2]; Ethanol): 1316 mL/g
- Solubility Observation ([2]; Ethanol, listed as Formula (I) bis-hydrochloride Form I): Very slightly soluble
- solubility ([2]; Ethyl acetate): 356535 mL/g
- Solubility Observation ([2]; Ethyl acetate, listed as Formula (I) bis-hydrochloride Form I): Practically insoluble
- solubility ([2]; Ethyl ether): 522061 mL/g
- Solubility Observation ([2]; Ethyl ether, listed as Formula (I) bis-hydrochloride Form I): Practically insoluble
- solubility ([2]; Methanol): 58 mL/g
- Solubility Observation ([2]; Methanol, listed as Formula (I) bis-hydrochloride Form I): Sparingly soluble
- solubility ([2]; Water): 654940 mL/g
- Solubility Observation ([2]; Water, listed as Formula (I) bis-hydrochloride Form I): Practically insoluble
- solubility ([2]; aqueous buffer, thermodynamic from solid, pH 3.0 buffer, read-out: Solubility): 20 µg/mL (≈ 41.8 µM)
- solubility ([2]; aqueous buffer, thermodynamic from solid, pH 4.0 buffer, read-out: Solubility): 3 µg/mL (≈ 6.26 µM)
- solubility ([2]; aqueous buffer, thermodynamic from solid, pH 5.0 buffer, read-out: Solubility): 0.09 µg/mL (≈ 0.188 µM)
- solubility ([2]; aqueous buffer, thermodynamic from solid, pH 6.0 buffer, read-out: Solubility): 0.1 µg/mL (≈ 0.209 µM)
- solubility ([2]; aqueous buffer, thermodynamic from solid, pH 6.8 buffer, read-out: Solubility): 0.09 µg/mL (≈ 0.188 µM)
- solubility ([2]; aqueous buffer, thermodynamic from solid, pH 7.0 buffer, read-out: Solubility): 0.06 µg/mL (≈ 0.125 µM)
- solubility ([2]; aqueous buffer, thermodynamic from solid, pH 8.0 buffer, read-out: Solubility): 0.05 µg/mL (≈ 0.104 µM)
- solubility ([2]; n-Hexane): 22316479 mL/g
- Solubility Observation ([2]; n-Hexane, listed as Formula (I) bis-hydrochloride Form I): Practically insoluble
- solubility ([2]; organic solvent or mixture, thermodynamic from solid, ACN, read-out: Solubility): 8 µg/mL (≈ 16.7 µM)
- solubility ([2]; organic solvent or mixture, thermodynamic from solid, DMSO, read-out: Solubility): 131000 µg/mL (≈ 273000 µM)
- solubility ([2]; organic solvent or mixture, thermodynamic from solid, Dichloromethane, read-out: Solubility): 2.7 µg/mL (≈ 5.64 µM)
- solubility ([2]; organic solvent or mixture, thermodynamic from solid, Ethanol, read-out: Solubility): 800 µg/mL (≈ 1670 µM)
- solubility ([2]; organic solvent or mixture, thermodynamic from solid, Ethyl acetate, read-out: Solubility): 2.8 µg/mL (≈ 5.85 µM)
- solubility ([2]; organic solvent or mixture, thermodynamic from solid, Ethyl ether, read-out: Solubility): 1.9 µg/mL (≈ 3.97 µM)
- solubility ([2]; organic solvent or mixture, thermodynamic from solid, Methanol, read-out: Solubility): 17400 µg/mL (≈ 36300 µM)
- solubility ([2]; organic solvent or mixture, thermodynamic from solid, n-Hexane, read-out: Solubility): 0.04 µg/mL (≈ 0.0835 µM)
- solubility ([2]; pH 1.2 buffer): 3811 mL/g
- Solubility Observation ([2]; pH 1.2 buffer, listed as Formula (I) bis-hydrochloride Form I): Very slightly soluble
- solubility ([2]; pH 2.0 buffer): 1688 mL/g
- Solubility Observation ([2]; pH 2.0 buffer, listed as Formula (I) bis-hydrochloride Form I): Very slightly soluble
- Solubility Observation ([2]; pH 3.0 buffer): Practically insoluble
- solubility ([2]; pH 3.0 buffer): 42855 mL/g
- Solubility Observation ([2]; pH 4.0 buffer): Practically insoluble
- solubility ([2]; pH 4.0 buffer): 331069 mL/g
- Solubility Observation ([2]; pH 5.0 buffer): Practically insoluble
- solubility ([2]; pH 5.0 buffer): 10759731 mL/g
- Solubility Observation ([2]; pH 6.0 buffer): Practically insoluble
- solubility ([2]; pH 6.0 buffer): 9770999 mL/g
- Solubility Observation ([2]; pH 6.8 buffer): Practically insoluble
- solubility ([2]; pH 6.8 buffer): 11528283 mL/g
- Solubility Observation ([2]; pH 7.0 buffer): Practically insoluble
- solubility ([2]; pH 7.0 buffer): 16139597 mL/g
- Solubility Observation ([2]; pH 8.0 buffer): Practically insoluble
- solubility ([2]; pH 8.0 buffer): 21884199 mL/g
- solubility ([2]; simulated gastric fluid, thermodynamic from solid, pH 1.2 buffer, read-out: Solubility): 300 µg/mL (≈ 626 µM)
- solubility ([2]; simulated gastric fluid, thermodynamic from solid, pH 2.0 buffer, read-out: Solubility): 600 µg/mL (≈ 1250 µM)
- solubility ([2]; thermodynamic from solid, Water, read-out: Solubility): 1.5 µg/mL (≈ 3.13 µM)
- water content (DVS) ([3]; at 20% relative humidity (sorption and desorption)): about 9%
- water content (DVS) ([3]; at 90% relative humidity (sorption and desorption)): about 14%
Compound: Cc1ccc2c(Nc3cccc(Cl)c3F)nccc2c1NC(=O)c1csc2c(N)ncnc12 [Example 3, 4-amino-N-(1-((3-chloro-2-fluorophenyl)amino)-6-methylisoquinolin-5-yl)thieno[3,2-d]pyrimidine-7-carboxamide]
